# Test results reported in ChEMBL document CHEMBL2086220, “Selective cytotoxicity and apoptosis induction in glioma cell lines by 5-oxygenated-6,7-methylenedioxycoumarins from Pterocaulon species” (Eur J Med Chem, 2012).
# Active and inactive are the calls of the source. The calls are words filed in the database; no cut-off is given here.
# Experiments:
# C6 [1] = experiment: Cytotoxicity against rat C6 cells incubated for 48 hrs by MTT assay; assay type: functional, cell-based
# [2] = Cytotoxicity against human U138MG cells incubated for 48 hrs by MTT assay; assay type: functional, cell-based, U138-MG
# C6 [3] = experiment: Induction of apoptotic cell death in rat C6 cells at 25 uM incubated for 24 hrs by Annexin V/PI staining based flow cytometry; assay type: functional
# C6 [4] = experiment: Induction of apoptotic cell death in rat C6 cells at 50 uM incubated for 24 hrs by Annexin V/PI staining based flow cytometry; assay type: functional
# C6 [5] = experiment: Induction of early apoptotic cell death in rat C6 cells at 100 uM incubated for 24 hrs by Annexin V/PI staining based flow cytometry; assay type: functional
# Hippocampus = experiment: Toxicity in Wistar rat organotypic hippocampal cultures at 100 uM incubated for 48 hrs by propidium iodide incorporation assay; assay type: tissue-based
# [6] = Rattus norvegicus, C6, 48 h, read-out: IC50
# [7] = Homo sapiens, U138-MG, 48 h, read-out: IC50
SMILES,IC50 (C6 [1]; c6),IC50 ([2]; u138-mg),IC50 (C6 [1]; [6]) [µM],"IC50 [2, 7] [µM]",further results
O=c1ccc2ccc(O)cc2o1 [UMBELLIFERONE],Not Active,Not Active,,,
Cn1nnc2c(C(N)=O)ncn2c1=O [TEMOZOLOMIDE],,,34,26,
O=c1ccc2ccccc2o1 [COUMARIN],Not Active,Not Active,,,
O=c1ccc2cc(O)c(O)cc2o1 [ESCULETIN],Not Active,Not Active,,,
O=c1ccc2cc(O[C@@H]3O[C@H](CO)[C@@H](O)[C@H](O)[C@H]3O)c(O)cc2o1 [ESCULIN],Not Active,Not Active,,,
CC(C)(O)C(O)COc1c2c(cc3oc(=O)ccc13)OCO2 (stereo not given),,,76.4,75.6,
COc1c2c(cc3oc(=O)ccc13)OCO2,,,34.6,31.6,Activity (C6 [3]): inactive; Activity (C6 [4]): inactive; Activity (C6 [5]): Active; Activity (Hippocampus): Non-toxic
CC(C)=CCOc1c2c(cc3oc(=O)ccc13)OCO2,,,77.5,65.4,
